Data taken from patent US12661349B1, “Pharmaceutically acceptable salt of sphingosine-1-phosphate receptor agonist, and crystalline form thereof” (LG CHEM, LTD., priority 2021, dated 2026).

Experiment: Water solubility by quantitative analysis (HPLC)
Type: physicochemical
Settings: for Water solubility (μg/mL, HPLC) 24 hr: comparison of salt forms of Compound 1; for water solubility: quantitative analysis by HPLC, crystalline form of the salt
Experimental: (4) Quantitative Analysis (HPLC)
Approximately 26.7 mg of the sample was precisely weighed and placed in a 500 mL volumetric flask. 450 mL of a diluted solution (methanol:purified water=1:1) was added thereto, completely dissolved, and then filled with the diluted solution up to the marked line. HPLC equipment and analysis methods are represented in Table 1 below.
Quantitative analysis was carried out in the same manner as in Example 2.
Various types of salts were prepared. After analyzing characteristics in the same manner as above, the comparisons with potassium salt and methanesulfonic acid salt (mesylate) are represented in Table 4 below.

SMILES	solubility at 24 h (thermodynamic from solid, HPLC quantitation, 24 hr, comparison of salt forms of Compound 1, read-out: Water solubility (μg/mL, HPLC) 24 hr) [µg/mL]	Water solubility (μg/mL, HPLC) 24 hr (HPLC quantitation, 24 hr) [µg/mL]	water solubility [µg/mL]
CC(C)n1nc(Cl)c2cc(COc3ccc4c(c3)CCC(CN3CCC(C(=O)O)CC3)=C4Cl)ccc21 [Free form, 1-[1-Chloro-6-(3-chloro-1-isopropyl-1H-indazol-5-ylmethoxy)-3,4-dihydro-naphthalen-2-ylmethyl]-piperidine-4-carboxylic acid]	3.7	–	–
CC(C)n1nc(Cl)c2cc(COc3ccc4c(c3)CCC(CN3CCC(C(=O)[O-])CC3)=C4Cl)ccc21.[K+] [K salt (1 eq.), potassium salt of 1-[1-chloro-6-(3-chloro-1-isopropyl-1H-indazol-5-ylmethoxy)-3,4-dihydro-naphthalen-2-ylmethyl]-piperidine-4-carboxylic acid]	–	33238.5	33238.5
CC(C)n1nc(Cl)c2cc(COc3ccc4c(c3)CCC(CN3CCC(C(=O)O)CC3)=C4Cl)ccc21.CS(=O)(=O)O [Mesylate (1 eq.), methanesulfonic acid salt (mesylate) of 1-[1-chloro-6-(3-chloro-1-isopropyl-1H-indazol-5-ylmethoxy)-3,4-dihydro-naphthalen-2-ylmethyl]-piperidine-4-carboxylic acid]	–	536.8	536.8
